From patent US4661484A, “Pyridazinone derivatives and salts thereof as cardiac stimulants” (Mitsubishi Chemical Industries Limited, priority 1984, dated 1987)

How the values were obtained:
[1] = system: papillary muscle of dog; assay: Effect on contraction of an isolated and cross-circulated papillary muscle preparation of the dog; settings: Canis lupus familiaris; dosage 30 μg i.a.; read-out: Contraction of papillary muscle of dog, increase
Protocol: 1. Effect on contraction of an isolated and cross-circulated papillary muscle preparation of the dog
An isolated and cross-circulated papillary muscle preparation of the dog was prepared by Endo and Hashimoto's method (referred to American Journal of Physiology, 218, 1459-1463, 1970). The effect of the compound was measured by closely intraarterially injecting the compound dissolved in a solvent to the papillary muscle for the purpose of recording its effect on contraction of papillary muscle.

[2] = Acute toxicity (LD50), intravenous, male mice; settings: mouse, in vivo, i.v.
Protocol: Acute toxicity (LD50) for intravenous administration in male mice was determined by the method of […] and Wilcoxon (referred to Journal of Pharmacology and Experimental Therapeutics, 96, 99-113, 1949).

[3] = system: myocardial contraction in anesthetized dogs; assay: Effects on myocardial contraction in anesthetized dogs; format: in vivo; settings: anesthetized dog
Protocol: 3. Effects on myocardial contraction in anesthetized dogs
Male and female mongrel dogs with body weight of 8-15 kg were used. A dog was anesthetized by intraveneous injection of 30 mg/kg of sodium pentobarbital and practiced artificial respiration. The dog was thoractomized between fourth and fifth costa which was cut off. The pericardium was incised to expose heart. Blood flow through the aorta, which was measured with an electromagnetic blood flowmeter whose probe was attached to the ascending aorta, was used as an approximate index of cardiac output (CO). Left ventricular pressure (LVP) was measured with a Miller Catheter-tip pressure transducer and the first derivative of the LVP (dP/dt) was measured with a differentiater. Contraction of right ventricular muscle (Cont) was determined with a strain-gauge attached to the wall. Systemic blood pressure was measured from the left femoral artery. Heart rate was measured with electrocardiogram (lead II) and a cardiotachometer. The compound dissolved in a solvent was administered intravenously from a left femoral vein.

[4] = system: left atrium of the guinea pig; assay: Effect on contraction of an isolated left atrium of the guinea pig; settings: Cavia porcellus; dosage 10^-5 g/ml; read-out: Contraction of left atrium of guinea pig, increase
Protocol: 2. Effect on contraction of an isolated left atrium of the guinea pig
A left atrium was isolated from a male guinea pig with 200-300 g of body weight soon after striking on the back of its head. The mitral orifice was fixed to the bottom of an organ bath filled with 30 ml of Krebs-Henseleit solution maintained at 35° C. A gas mixture comprising 95% of O2 and 5% of CO2 was passed through the Krebs-Henseleit solution in the organ bath. Isometric tension was measured by connecting a left auricle of heart and a transducer by a yarn. A resting tension of 0.5 g was given to the atrium, which was then electrically driven with square pulses with duration of 1 msec and voltage of 1.5 times as much as threshold in the rate of 2 Hz via dipolar platinum electrodes.
After stabilizing the atrium for 30 minutes from its preparation, the compound dissolved in a solvent was added to the organ bath to measure its effect.

O=c1ccc(-c2ccc(Nc3ccncc3)cc2)n[nH]1 [Example I, 6-[4-(4'-pyridyl)aminophenyl]-3(2H)-pyridazinone]
activation at 0.03 mg [1]: 12.4%
LD50 [2]: 103 mg/kg
CO increase (cardiac output) ([3]; 30 μg/kg i.v.): 13%
Cont increase (contraction of right ventricular muscle) ([3]; 30 μg/kg i.v.): 31%
dP/dt max increase ([3]; 30 μg/kg i.v.): 64%
CO increase (cardiac output) ([3]; 100 μg/kg i.v.): 11%
Cont increase (contraction of right ventricular muscle) ([3]; 100 μg/kg i.v.): 39%
dP/dt max increase ([3]; 100 μg/kg i.v.): 108%
activation at 10 µg/mL [4]: 163%
